pEC50: −log10 of the molar value.
Biological target: T1, α7-HI (Rattus norvegicus, UniProt Q05941)
T1 construct: expressed in transfected cells
Assay: FLIPR Ca2+-sensitive fluorescence assay, α7-HI (agonist activity) in HEK 293 cells
Assay type: cell-based
Conditions: Table 4; Ca2+ flux, HEK-293 cells expressing the channel; read-out: FLIPR α7-HI (EC50)
Protocol: I) α7 Nicotinic Acetycholine Receptor Binding. Membranes were prepared for binding using HEK293 cells stably expressing the rat α7 nicotinic acetycholine receptor (rat α7 nAChR). Cells were homogenized at 4° C. in hypotonic lysis buffer consisting of 10 mM Tris (pH 7.4), 5 mM EDTA and protease inhibitors and centrifuged at 32000×g for 20 minutes. The pellet was washed once in membrane wash buffer consisting of 50 mM Tris (pH 7.4), 1 mM EDTA and protease inhibitors and centrifuged at 32000×g for 20 minutes. This pellet was then resuspended in assay buffer consisting 50 mM KH2PO4 (pH 7.4 at 25° C.), 1 mM EDTA, 0.005% Triton-X 100 and 0.1% (v/v) Sigma Protease Inhibitor Cocktail. Aliquots were then frozen in dry ice/ethanol and kept at −80° C. until the day of the assay. II) A Ca^2+-Sensitive, Fluorescence-Based Assay α-7 for Nicotinic Acetylcholine Receptor Channel Function in Mammalian Cells (“FLIPR”). Summary: Lead compounds are evaluated for agonist activity at α-7, α3β4, α4αβ2, and α1β1δ1ε sub-types of nicotinic ACh receptor ion channels expressed in mammalian HEK 293 cells. Agonist potency and efficacy values are determined from kinetic fluorescence Ca^2+ influx measurements made using a 384 well FLIPR (Fluorescence Image Plate Reader). […] In this assay, channel expressing HEK cell lines seeded in 384 well assay plates are loaded with a membrane permeant fluorescent Ca^2+ indicator dye, whose 510 nm green emission signal increases in response to elevation of intracellular Ca^2+ concentration. The basal fluorescence from the cells is monitored in real time, followed by the acute addition of test compounds.
Materials and Methods: Reagents: The acetomethoxy (AM) ester of the Ca^2+ indicator dye Fluo-4 was obtained from InVitrogen, (Carlsbad, Calif.). Acetylcholine and all buffer constituents were purchased from Sigma Chemical Company, St. Louis, Mo. G418 and Minimal Essential Medium were purchased from InVitrogen Life Technologies, Carlsbad, Calif. Fetal bovine serum was purchased from (InVitrogen, Carlsbad, Calif.).
Cell Culture: HEK-293 cells were grown in Minimal Essential Medium containing 10% (v/v) fetal bovine serum at 37° C. in a 5% CO2 incubator. HEK-293 cells stably expressing the ion channels were grown in the same medium with the addition of 500 μg/ml G418.
Ca^2+ flux assays of Ca^2+ channels expressed in HEK-293 cells: HEK-293 cells expressing the ion channels of interest were plated in 384 well, black-walled, clear-bottomed, poly-D-lysine coated plates at a density of ˜20,000 cells/well in 20 μl of Minimal Essential Medium containing 10% (v/v) fetal bovine serum and incubated for 2 days at 29° C. in a 5% CO2 incubator. Prior to assay, cells were loaded with the Fluo-4 AM ester. […] Dye loading was allowed to proceed for 90 minutes at room temperature at which time the dye loading solution was removed and replaced with 40 μl/well of Hanks buffer. Cells loaded with dye were loaded onto a FLIPR384 (Molecular Devices, Sunnyvale, Calif.). Fluo-4 dye was excited using the 488 nm line of an argon laser. Emission was filtered using a 540+/−30 nm bandpass filter. For evaluation of the effects of test compounds using the Ca^2+ flux assay, compounds to be tested were provided in assay ready plates. For nicotinic receptor ion channel expressing cells, the assay was initiated by the addition of 20 μl/well of Hanks buffer containing test compounds. For all assays, data were collected at 1 Hz for 10 seconds (baseline), at which time the compound containing stimulus buffers are added, and further measurements collected at 0.33 Hz for 3 min.
Data Analysis: The statistical robustness of the nicotinic receptor Ca^2+ flux assays is determined from blanks and totals wells. […] The raw fluorescence units data files generated on the FLIPR plate reader are automatically exported and processed by in-house data analysis tools.

T1 sequence (Q05941 23-502): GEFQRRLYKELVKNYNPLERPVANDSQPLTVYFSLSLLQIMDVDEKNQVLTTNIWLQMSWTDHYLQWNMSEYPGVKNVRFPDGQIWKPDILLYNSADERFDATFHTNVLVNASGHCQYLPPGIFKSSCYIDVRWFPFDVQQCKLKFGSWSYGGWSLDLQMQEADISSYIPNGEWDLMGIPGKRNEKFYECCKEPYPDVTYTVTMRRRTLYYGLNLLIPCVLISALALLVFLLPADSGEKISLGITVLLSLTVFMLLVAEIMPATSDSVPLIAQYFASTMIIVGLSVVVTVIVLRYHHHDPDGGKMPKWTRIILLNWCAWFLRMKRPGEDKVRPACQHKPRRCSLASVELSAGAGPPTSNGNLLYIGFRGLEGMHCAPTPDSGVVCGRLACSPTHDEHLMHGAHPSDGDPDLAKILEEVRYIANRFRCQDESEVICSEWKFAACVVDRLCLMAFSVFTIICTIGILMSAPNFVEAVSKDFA

| SMILES | pEC50 |
| --- | --- |
| O=C(c1n[nH]c2cc(Cl)ccc12)N1C2CC3CN(CCC31)C2 (stereo not drawn) [Example 46, ((2S*,3aR*,5R*,7aS*)-(6-chloro-1H-indazol-3-yl)(hexahydro-2,5-methanopyrrolo[3,2-c]pyridin-1(6H)-yl)methanone] | 8.00 |
| O=C(c1noc2ccccc12)N1C2CC3CN(CCC31)C2 (stereo not drawn) [Example 47, ((2S*,3aR*,5R*,7aS*)-benzo[d]isoxazol-3-yl(hexahydro-2,5-methanopyrrolo[3,2-c]pyridin-1(6H)-yl)methanone] | 5.89 |
| COc1cccc2[nH]nc(C(=O)N3C4CC5CN(CCC53)C4)c12 (stereo not drawn) [Example 48, ((2S*,3aR*,5R*,7aS*)-(4-methoxy-1H-indazol-3-yl)(hexahydro-2,5-methanopyrrolo[3,2-c]pyridin-1(6H)-yl)methanone] | 5.13 |
| Cc1ccc2c(C(=O)N3C4CC5CN(CCC53)C4)n[nH]c2c1 (stereo not drawn) [Example 49, ((2S*,3aR*,5R*,7aS*)-(6-methyl-1H-indazol-3-yl)(hexahydro-2,5-methanopyrrolo[3,2-c]pyridin-1(6H)-yl)methanone] | 8.38 |
| Cc1ccc2c(C(=O)N3[C@H]4C[C@@H]5C[N@@](CC[C@@H]53)C4)n[nH]c2c1 [Example 49a, (2S,3aR,5R,7aS)-(6-methyl-1H-indazol-3-yl)(hexahydro-2,5-methanopyrrolo[3,2-c]pyridin-1(6H)-yl)methanone] | 8.51 |
| Cc1ccc2c(C(=O)N3[C@@H]4C[C@H]5C[N@](CC[C@H]53)C4)n[nH]c2c1 [Example 49b, (2R,3aS,5S,7aR)-(6-methyl-1H-indazol-3-yl)(hexahydro-2,5-methanopyrrolo[3,2-c]pyridin-1(6H)-yl)methanone] | 7.33 |

Same assay, conditions: Table 5; Ca2+ flux, HEK-293 cells expressing the channel; read-out: FLIPR α7-HI (EC50)

| pEC50 | SMILES |
| --- | --- |
| 6.44 | O=C(c1n[nH]c2ccccc12)N1C2CC3C1CCCN3C2 (centres unmarked) [Example 50, (1H-indazol-3-yl)(octahydro-2,8-epiminoindolizin-9-yl)methanone] |
| < 4.00 | O=C(c1cc2cccc(Cl)c2s1)N1C2CC3C1CCCN3C2 (centres unmarked) [Example 51, (7-chlorobenzo[b]thiophen-2-yl)(octahydro-2,8-epiminoindolizin-9-yl)methanone] |
